According to article PMC9151520 (Archives of Toxicology, 2022):
Where “and” joins values, the source holds several entries; their conditions need not be identical. Equal entries are not always repeated. Where two headings read alike, the source gives them in different places.

Tests used:
[1] = tested on: p53 signaling (p53RE-bla HCT-116 cells); assay: cells; format: cell-based
[2] = tested on: p53 signaling (p53RE-bla HCT-116 cells)
[3] = tested on: p53 signaling (p53RE-bla HCT-116 cells); remark: listed apart in the source

SMILES	p53 activation EC50, cherry pick confirmation [2]	p53 activation EC50, primary screening [2]	p53 activation efficacy, cherry pick confirmation [2]	p53 activation efficacy, primary screening [2]	p53 activation EC50, cherry pick confirmation [3]	p53 activation EC50, primary screening [3]	p53 activation efficacy, cherry pick confirmation [3]	p53 activation efficacy, primary screening [3]	p53 activation EC50 [1]	p53 activation efficacy [1]	EC50 [2]	p53 activation efficacy [2]	p53 activation EC50 [3]	Viability EC50 (p53RE-bla HCT-116 cells)	Viability efficacy (p53RE-bla HCT-116 cells)	other results
N[C@@H](Cc1ccc(N(CCCl)CCCl)cc1)C(=O)O [Melphalan]	inactive	inactive	inactive	inactive	inactive	inactive	inactive	inactive	–	–	–	–	–	–	–	EC50 ([1]; Homo sapiens, HCT-116, read-out: p53 activation EC50, cherry pick confirmation): 15.6 µM; EC50 ([1]; Homo sapiens, HCT-116, read-out: p53 activation EC50, primary screening): 17.8 µM; Emax ([1]; Homo sapiens, HCT-116, read-out: p53 activation efficacy, cherry pick confirmation): 43.3%; Emax ([1]; Homo sapiens, HCT-116, read-out: p53 activation efficacy, primary screening): 46.7%; Viability EC50, cherry pick confirmation (p53RE-bla HCT-116 cells): inactive; Viability EC50, primary screening (p53RE-bla HCT-116 cells): inactive; Viability efficacy, cherry pick confirmation (p53RE-bla HCT-116 cells): inactive; Viability efficacy, primary screening (p53RE-bla HCT-116 cells): inactive
COP(=S)(OC)Oc1ccc([N+](=O)[O-])cc1 [Methyl parathion]	–	–	–	–	–	–	–	–	inactive	inactive	9.83 µM	52.7126 and 58.5263	inactive	inactive	inactive	EC50 ([3]; read-out: p53 activation EC50): 7.98 µM
N#CSCSC#N [Methylene bis(thiocyanate)]	inactive	inactive	inactive	inactive	inactive	inactive	inactive	inactive	–	–	–	–	–	–	–	p53 activation efficacy, cherry pick confirmation [1]: 39.736; p53 activation efficacy, primary screening [1]: 49.8917; EC50 ([1]; read-out: p53 activation EC50, cherry pick confirmation): 10.1 µM; EC50 ([1]; read-out: p53 activation EC50, primary screening): 11.8 µM; EC50 (p53RE-bla HCT-116 cells; read-out: Viability EC50, cherry pick confirmation): 38.1 µM and 36 µM and 40.4 µM; EC50 (p53RE-bla HCT-116 cells; read-out: Viability EC50, primary screening): 39.6 µM and 47 µM and 35.4 µM
COP(=O)(OC)Oc1ccc([N+](=O)[O-])cc1 [Methylparaoxon]	–	–	–	–	–	–	–	–	–	–	20.1 µM	–	–	–	–	EC50, p53 activation, cherry pick confirmation [1]: inactive; EC50, p53 activation, primary screening [1]: inactive; Efficacy, p53 activation, cherry pick confirmation [1]: inactive; Efficacy, p53 activation, primary screening [1]: inactive; EC50 ([2]; read-out: EC50, p53 activation, cherry pick confirmation): 20 µM; EC50, p53 activation, cherry pick confirmation [3]: inactive; EC50, viability, cherry pick confirmation (p53RE-bla HCT-116 cells): inactive; EC50, viability, primary screening (p53RE-bla HCT-116 cells): inactive; Efficacy, viability, cherry pick confirmation (p53RE-bla HCT-116 cells): inactive; Efficacy, viability, primary screening (p53RE-bla HCT-116 cells): inactive
COC(=O)/C=C(\C)OP(=O)(OC)OC [Mevinphos]	–	–	–	–	–	–	–	–	inactive	inactive	7.96 µM	77.3871 and 64.7167	inactive	inactive	inactive	–
